“And” between values parts separate entries of the source, which are not always exact repeats. Equal entries are not always repeated. “Also recorded” adds a separate entry of the source. Where two headings read alike, the source gives them in different places.

The values that follow come from patent US9522159B2, “Treatment and prevention of P. aeruginosa infections using coformycin analogs” (Albert Einstein College of Medicine, Inc., priority 2012, dated 2016).

In series [1] the target is T1, PaMTADA (Pseudomonas aeruginosa, UniProt Q9HZ64).
T1 sequence (Q9HZ64 1-444): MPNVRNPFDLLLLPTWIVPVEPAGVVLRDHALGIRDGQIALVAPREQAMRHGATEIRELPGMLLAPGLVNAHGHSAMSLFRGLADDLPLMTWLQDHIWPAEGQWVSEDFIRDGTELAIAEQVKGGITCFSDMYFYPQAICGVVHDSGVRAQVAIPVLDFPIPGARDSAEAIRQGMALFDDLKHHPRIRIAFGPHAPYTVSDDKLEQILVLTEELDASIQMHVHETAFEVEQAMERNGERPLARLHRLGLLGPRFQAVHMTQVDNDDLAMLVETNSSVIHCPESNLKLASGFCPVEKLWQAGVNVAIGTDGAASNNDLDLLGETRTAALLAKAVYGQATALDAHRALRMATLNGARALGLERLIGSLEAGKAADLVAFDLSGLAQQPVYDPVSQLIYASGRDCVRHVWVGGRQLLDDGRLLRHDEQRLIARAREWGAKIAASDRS
Nature of the series: Inhibition assays for PaMTADA. In kind it is biochemical. From the text: (§1) Inhibition assays. […] Controls having no enzyme and no inhibitor were included in all of the inhibition assays. The inhibition constant was obtained by fitting initial rates with variable inhibitor concentrations to equation (1) using GraFit 5 (Erithacus Software): […]
(§2) The inhibitor concentration was corrected using equation (2) when it was less than 10 times of the enzyme concentration (20): […]

The target in a further series is E. coli MTAN (Escherichia coli, UniProt P0AF12). Nature of the series: Inhibition assays of EcMTAN. In kind it is biochemical.
The target in series [2] is T1, PaMTADA. Nature of the series: Inhibition of cellular PaMTADA activity, MTCF added to LB medium during growth. In kind it is cell-based, Pseudomonas aeruginosa PAO1. On the procedure:
(§3) Inhibition of cellular PaMTADA activity. Inhibition of PaMTADA activity in cell lysates was carried out as follows. P. aeruginosa PAO1 (ATCC number: 15692) was grown at 37° C. to stationary phase in LB medium for 16 hours. Cells were collected by centrifugation at 16,100 g and washed three times with 100 mM phosphate, pH 7.4. Cells were lysed using BugBuster reagent (Novagen). […] Reaction mixtures were quenched with perchloric acid (1.8 M final concentration) and neutralized with potassium hydroxide. Precipitates were removed by centrifugation and carrier hypoxanthine, adenine, MTI, and MTA were added to the supernatant. Separation of the metabolites was carried out on a C18 Luna HPLC column (Phenomenex) with a gradient of 5 to 52.8% acetonitrile in 20 mM triethylamine acetate, pH 5.2. The UV absorbance at 260 nm was monitored. […] Fractions were collected in scintillation vials, dried, reconstituted in 200 μL deionized water prior to addition of 10 mL ULTIMA GOLD LSC-Cocktail scintillation fluid. The cpm of ^14C was counted at 20 min per cycle for three cycles using a Tri-Carb 2910TR liquid scintillation analyzer. Cell lysate was replaced by lysis buffer in reaction mixtures in control experiments. […] All other procedures were the same as described above.
(§4) [formula] where y is the percentage of degraded MTA at certain [I] […] Results and Discussion
(§5) Two hypotheses were considered for this activity. […] Second, the residual activity might arise from diffusional release of the inhibitor during the dilution (and incubation) of a small volume of cell extract into the larger volume of lysis buffer and other incubation buffer.

In series [3] the target is E. coli MTA nucleosidase (MTAN) (Escherichia coli, UniProt P0AF12). Nature of the series: Degradation of MTCF by E. coli MTA nucleosidase. In kind it is biochemical. On the procedure: (§6) Enzymatic assays. […] Deaminase activity on guanosine was measured at 260 nm with an extinction coefficient of 3.9 mM^−1cm^−1 (18). […] The extinction coefficient is 15.5 mM^−1cm^−1 at 305 nm. Reactions of deaminase were carried out at 25° C. in 1 cm cuvettes. Assay mixtures of 1 mL contained 50 mM Hepes, pH 7.4, 100 mM NaCl, 100 μg/mL BSA, variable concentrations of substrate, and appropriate amounts of purified PaMTADA. Reactions were initiated by addition of enzyme and the initial rates were monitored with a CARY 300 UV-Visible spectrophotometer. Control rates (no PaMTADA) were subtracted from initial rates. Kinetic parameters of PaMTADA were obtained by fitting initial rates to the Michaelis-Menten equation using GraFit 5 (Erithacus Software).
(§7) MTCF was examined to test if it might be metabolized by other enzymes related to MTA metabolism, namely by human MTA phosphorylase (MTAP) and E. coli MTA nucleosidase (MTAN).

The target of a further series is T2, human MTAP (Homo sapiens, UniProt Q13126).
T2 sequence (Q13126 1-283): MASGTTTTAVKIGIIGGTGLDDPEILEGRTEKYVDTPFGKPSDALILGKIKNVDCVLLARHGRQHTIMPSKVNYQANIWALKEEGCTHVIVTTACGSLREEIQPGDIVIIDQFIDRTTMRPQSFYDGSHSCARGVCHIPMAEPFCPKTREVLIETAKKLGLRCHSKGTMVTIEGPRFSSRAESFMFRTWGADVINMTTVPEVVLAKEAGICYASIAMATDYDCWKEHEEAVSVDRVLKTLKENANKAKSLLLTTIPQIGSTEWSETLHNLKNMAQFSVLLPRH
Nature of the series: Inhibition assays of HsMTAP. In kind it is biochemical. On the procedure:
as §6, §1, §2

For series [4], the target named is T3, Human ADA (Homo sapiens, UniProt P00813).
T3 sequence (P00813 1-363): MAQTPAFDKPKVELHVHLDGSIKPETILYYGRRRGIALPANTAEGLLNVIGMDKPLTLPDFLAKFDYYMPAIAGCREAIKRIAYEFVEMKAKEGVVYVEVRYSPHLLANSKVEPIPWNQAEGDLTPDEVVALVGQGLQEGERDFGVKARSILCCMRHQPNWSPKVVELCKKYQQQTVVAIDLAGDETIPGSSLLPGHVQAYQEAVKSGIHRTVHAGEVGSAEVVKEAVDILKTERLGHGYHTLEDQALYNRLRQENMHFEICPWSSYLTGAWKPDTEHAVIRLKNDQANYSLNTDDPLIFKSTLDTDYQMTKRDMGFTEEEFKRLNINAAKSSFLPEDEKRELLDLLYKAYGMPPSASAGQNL
The following applies: cited from earlier work; for Ki: equilibrium dissociation constant, from Tyler et al. (15); for inhibitory effect on human ADA: result in words.

In series [5] the target is T1, PaMTADA. Nature of the series: Inhibition of PaMTADA activity in P. aeruginosa cell lysates ([8-14C]MTA degradation). In kind it is biochemical, Pseudomonas aeruginosa PAO1. On the procedure:
as §3, §4
Inhibition of cellular PaMTADA activity. […]

The next series deals with P. aeruginosa PAO1. Nature of the series: Growth of P. aeruginosa PAO1 with or without MTCF (OD600). In kind it is cell-based, Pseudomonas aeruginosa PAO1. The following applies: up to 1 μM, 36 hours at 37° C. On the procedure: as §5
Series [6] has as its target T4, human MTA phosphorylase (MTAP) (Homo sapiens, UniProt Q13126).
T4 sequence (Q13126 1-283): T2 sequence (Q13126 1-283)
Nature of the series: Degradation of MTCF by human MTA phosphorylase. In kind it is biochemical. On the procedure: as §6, §7

Series [7] deals with T5, PfADA (Plasmodium falciparum, UniProt Q8IJA9).
T5 sequence (Q8IJA9 1-367): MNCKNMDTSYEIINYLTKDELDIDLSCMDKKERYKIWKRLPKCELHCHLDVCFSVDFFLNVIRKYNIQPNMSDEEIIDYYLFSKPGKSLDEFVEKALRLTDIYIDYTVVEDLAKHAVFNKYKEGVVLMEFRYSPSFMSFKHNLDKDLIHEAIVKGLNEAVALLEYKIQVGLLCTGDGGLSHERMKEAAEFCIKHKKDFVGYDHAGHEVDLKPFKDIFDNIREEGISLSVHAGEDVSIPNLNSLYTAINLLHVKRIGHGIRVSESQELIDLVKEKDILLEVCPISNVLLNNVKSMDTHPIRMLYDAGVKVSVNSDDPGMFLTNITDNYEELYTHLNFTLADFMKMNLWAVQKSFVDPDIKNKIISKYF
Nature of the series: PfADA inhibition, Ki values from Tyler et al. The following applies: times weaker than CF. In kind it is biochemical.

Series [8] has as its target T5, PfADA. Conditions: cited from earlier work.
The target of series [9] is T1, PaMTADA. Nature of the series: Deaminase activity of PaMTADA on substrates (enzymatic assays). In kind it is biochemical. Conditions: for deaminase activity on substrate: PaMTADA (recombinant PA3170), result in words. On the procedure:
as §6

Series [10] concerns the target T3, Human ADA. The following applies: substrate, from Tyler et al. (15); cited from earlier work.
Series [11] deals with CC(O)[C@H]1O[C@@H](n2cnc3c(N)ncnc32)[C@H](S)[C@@H]1O. Nature of the series: purified protein, by the assay type. Conditions: other: PaMTADA, substrate, 25° C., pH 7.4.
Setting [12] is: equilibrium dissociation constant, from Tyler et al. (15), read-out: PfADA Ki.
[13] abbreviates: PaMTADA, substrate, 25° C., pH 7.4.

Sequence of E. coli MTA nucleosidase (MTAN) (P0AF12 whole entry): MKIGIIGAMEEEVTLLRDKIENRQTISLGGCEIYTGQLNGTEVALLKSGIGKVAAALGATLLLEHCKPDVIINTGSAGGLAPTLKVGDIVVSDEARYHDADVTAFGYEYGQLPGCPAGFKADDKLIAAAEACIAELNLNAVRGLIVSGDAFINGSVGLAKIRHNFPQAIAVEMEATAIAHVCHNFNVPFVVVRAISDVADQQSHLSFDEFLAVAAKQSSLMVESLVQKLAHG
Sequence of E. coli MTAN (P0AF12 whole entry): as above

For the compound `OC[C@H]1O[C@@H](n2cnc3c2N=CNC[C@H]3O)[C@H](O)[C@@H]1O` [Coformycin (CF), Coformycin], the Ki on PaMTADA [1] (equilibrium dissociation constant (Ki or Ki*), 25° C., pH 7.4, 100 μM MTA, read-out: PaMTADA Ki) is 90 ± 10 nM.
In turn, `OC[C@H]1O[C@@H](n2cnc3c2NC=NC[C@H]3O)C[C@@H]1O` [DCF, 2′-deoxycoformycin, reference compound] returned a Ki on PaMTADA [1] of 37 nM.
In the case of `CSC[C@H]1O[C@@H](n2cnc3c2N=CNC[C@H]3O)[C@H](O)[C@@H]1O` [MTCF, 5′-methylthiocoformycin], the figures for the Ki at E. coli MTAN, at human MTAP and on Human ADA [4] were more than 5000 nM, 3000 nM and more than 10000 nM, respectively. Further, the “concentration at which maximal inhibition was achieved” value at PaMTADA [2] (MTCF in LB medium) was found to be 10 nM. In addition, the IC50 – broadly, the concentration needed to halve the response being measured – against PaMTADA [2] (MTCF in LB medium during growth, corrected for residual activity) worked out at 3 nM; against PaMTADA [5] (MTCF added to P. aeruginosa cell lysate, [8-14C]MTA degradation, 20 min), 4 nM. At PaMTADA [2] (cells grown with 500 nM MTCF in LB, 100 nM MTCF added to cell lysate), the PaMTADA activity entry is given as “All PaMTADA activity was inhibited”. Also, the “permeability to P. aeruginosa cells” value on PaMTADA [2] (inferred from inhibition after growth in MTCF-containing LB) is recorded as “permeable”. Also, the “degradation of MTCF, kobs” value in series [3] and in series [6] was less than 0.001 s⁻¹ each time. Moreover, the “inhibition of human MTA phosphorylase” value at human MTAP (result in words) was “no significant inhibition; also recorded: no significant inhibitory effects”. In addition, at Human ADA [4], the “inhibitory effect on human ADA” value is “no significant inhibition; also recorded: no significant inhibitory effects”. The “degradation of MTA” value at PaMTADA [5] (50 nM inhibitor in cell lysate) is “completely blocked”. In the series with P. aeruginosa PAO1, the “effect on cell growth” value is “no effect”.
For `CSCC1OC(n2cnc3c2N=CNCC3O)CC1O` (centres unmarked) [MTDCF, 5′-methylthio-2′-deoxycoformycin], on PfADA [7], the “binding affinity for PfADA relative to CF” value is listed as 9 times. Moreover, the Ki on PfADA [8] (setting [12]) is 0.7 ± 0.2 nM; on PfADA [8] (from (15), read-out: PfADA Ki / equilibrium dissociation constant), 0.7 nM; on Human ADA [4], more than 10000 nM; on PaMTADA [1], 0.008 nM. For the same compound, the “inhibitory effect on human ADA” value at Human ADA [4] is on record as “no inhibitory effect”.
`O[C@@H]1CNC=Nc2c1ncn2[C@H]1C[C@H](O)[C@@H](CSc2ccccc2)O1` [PhTDCF, 5′-phenylthio-2′-deoxycoformycin]: the Ki on PfADA [8] (setting [12]) was 60 nM; on PaMTADA [1] (25° C., pH 7.4, 100 μM MTA, read-out: PaMTADA Ki / dissociation constant) it was 0.13 nM.
Consider `CCCSCC1OC(n2cnc3c2N=CNCC3O)CC1O` (centres unmarked) [PrTDCF, 5′-propylthio-2′-deoxycoformycin], for which the “binding affinity for PfADA relative to CF” value on PfADA [7] is recorded as 150 times. Also, the figures for the Ki on Human ADA [4] and on PaMTADA [1] were more than 10000 nM and 0.067 nM, respectively. Further, the “binding to PaMTADA relative to MTDCF” value at PaMTADA [1] (times weaker than MTDCF) is 8 times.
For `Nc1ncnc2c1ncn2[C@@H]1O[C@H](CSCC[C@H](N)C(=O)O)[C@@H](O)[C@H]1O` [SAH, S-adenosylhomocysteine], on PaMTADA [9], the “deaminase activity on substrate” value was “inactive”.
The same measure, in the same setting: the value for `Nc1ncnc2nc[nH]c12` [adenine] was “inactive”.
With `Nc1ncnc2c1ncn2[C@@H]1O[C@H](CO)[C@@H](O)[C@H]1O` [adenosine], the Km – broadly, the concentration of substrate that gives half-maximal velocity – on Human ADA [10] was 22 ± 3 µM; at PaMTADA [9] (setting [13]) it was 46 µM. The kcat (as a rule, the maximal rate divided by the concentration of active sites) at Human ADA [10] is 36 ± 1 s⁻¹; on PaMTADA [9] (setting [13]), 17 s⁻¹ and 17 ± 1 s⁻¹.
Consider `Nc1nc2c(ncn2[C@@H]2O[C@H](CO)[C@@H](O)[C@H]2O)c(=O)[nH]1` [guanosine], for which the “deaminase activity on substrate” value on PaMTADA [9] is “inactive”.
Turning to PaMTADA (Pseudomonas aeruginosa PAO1), in series [11], the Km stood at 1.5 µM, the kcat was 24.6 ± 0.8 s⁻¹ and the kcat/Km is recorded as 160 ± 30 ×10^5 M^−1s^−1.
